Common to all, as to experiment: In vitro MIC against veterinary bacteria, Diagnostic Sensitivity Test Agar
Holding throughout (assay type): cell-based

For one assay, the system named is B.subtilis. The conditions noted are these: Bacillus subtilis, ATCC6633; strain ATCC 6633; 18 hours at 37° C. The procedure: (§1) The activity of the compounds of the Examples against various veterinarily important bacteria, was assayed in vitro using two-fold serial dilutions in Diagnostic Sensitivity Test Agar inoculated with 10^4 organisms.
A further assay deals with Bord.bronchiseptica. The conditions noted are these: Bordetella bronchiseptica, 18 h, 18 hours at 37° C. As for the experimental part: as §1
The subject of another assay is Corynebacterium pyogenes. The conditions noted are these: Trueperella pyogenes; strain CY1; 18 hours at 37° C. As for the experimental part:
as §1

For the next assay, the system named is E.coli. The conditions noted are these: Escherichia coli, 18 hours at 37° C. As for the experimental part:
as §1

Assay [1] relates to Erysipelothrix rhusiopathiae. The conditions noted are these: NCTC8163, strain NCTC 8163, 18 hours at 37° C. The procedure: as §1
The next assay concerns Moraxella Bovis. The following applies: 18 hours at 37° C. As for the experimental part:
as §1

The subject of another assay is S.dublin. The conditions noted are these: Salmonella enterica; strain S7; 18 hours at 37° C. The procedure: as §1
In a further assay the test system is S.typhimurium. The conditions noted are these: Salmonella enterica, strain S18, 18 hours at 37° C. The procedure: as §1
A further assay has as its system Strep.agalactiae. The conditions noted are these: Streptococcus agalactiae; strain SPA1; 18 hours at 37° C. The procedure: as §1
Another assay has as its system Strep.dysgalaciae. The conditions noted are these: strain SPD1; 18 hours at 37° C. The procedure: as §1
In another assay the test system is Strep.suis (group D). The following applies: Streptococcus suis; strain SPS11; 18 hours at 37° C. As for the experimental part: as §1
In another assay the test system is Strep.uberis. The following applies: Streptococcus uberis; strain SPU1; 18 hours at 37° C. The procedure:
as §1

SMILES strings stand for the structures. Where only a bound is given, the exact number is not on record here.

As for `CC(=CC(=O)OCCCCCCCCC(=O)O)CC1OCC(CC2OC2C(C)C(C)O)C(O)C1O` (centres unmarked) [Calcium Pseudomonate dihydrate, Calcium Pseudomonate Dihydrate], the MIC (usually the smallest concentration in the dilution series that meets the test's criterion for growth inhibition) against B.subtilis is 0.07 µg/mL; in the assay with Bord.bronchiseptica (strain B08) it was 5 µg/mL; with Bord.bronchiseptica (strain B09) it was 1.3 µg/mL; against Corynebacterium pyogenes, over 80 µg/mL; against E.coli (NCTC10418, strain NCTC 10418), 80 µg/mL; with E.coli (strain E1), 80 µg/mL. Moreover, the MIC in assay [1] was 20 µg/mL; against Moraxella Bovis, 0.31 µg/mL; in the assay with S.dublin, 80 µg/mL; in the assay on S.typhimurium, 80 µg/mL; against Strep.agalactiae, 0.16 µg/mL; against Strep.dysgalaciae, 0.16 µg/mL. Moreover, the MIC against Strep.suis (group D) came to 0.63 µg/mL; in the assay with Strep.uberis it was 0.07 µg/mL.

(Values after patent publication US5191093A, “Process for preparing crystalline calcium pseudomonate” (Beecham Group p.l.c., priority 1990, dated 1993).)
